Reference: ChEMBL document CHEMBL1201862, “PubChem BioAssay data set” (2004)
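Cells were grown in 96-well plates and exposed to each compound for 48 hours at five concentrations; endpoints were interpolated linearly between bracketing concentrations, or set to the highest concentration if not reached. The concentration for 50% growth inhibition is given as GI50.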 Activity calls are given as the source filed them. Cut-off read from the data, not from the text of the source: active = GI50 up to about 1.1 µM and inactive = higher.

Legend:
Experiment in all cases: NCI anticancer screen, dose series, 48 h
[1] = system: T47D
[2] = system: MDA-N
[3] = system: Hs-578T
[4] = system: KM-20L2
[5] = system: SNB-78
[6] = system: HOP-18
[7] = system: M19-MEL
[8] = system: LXFL 529

Compound	GI50 [1]	GI50 [2]	GI50 [3]	GI50 [4]	GI50 [5]	GI50 [6]	GI50 [7]	GI50 [8]
Cc1ccnc2nc(-c3cccc(Cl)c3)cc(O)c12	> 100 µM (inactive)	0.0108 µM (active)	0.44 µM (active)					
CCCCCCOc1ccc(NC2=C(Cl)C(=O)c3cccnc3C2=O)cc1	1.62 µM (inactive)	1.59 µM (inactive)	8.02 µM (inactive)					
Cn1c(=O)cc(NCCc2ccccc2)[nH]c1=O	54.5 µM (inactive)	3.7 µM (inactive)	14.1 µM (inactive)					
OCC1CCCC(n2cnc3c(S)ncnc32)O1 (stereo not given)	> 100 µM (inactive)	> 100 µM (inactive)	> 100 µM (inactive)					
Cc1nc(N)nc(S)c1CCCNc1ccccc1	20.4 µM (inactive)	52 µM (inactive)	> 100 µM (inactive)					
OC(COc1ccccc1)CN1CCCCC1 (stereo not given)	> 100 µM (inactive)	> 100 µM (inactive)	> 100 µM (inactive)					
COc1ccc2c(c1)c1c(n2CCN(C)C)-c2cccc(OC)c2CC1	10 µM (inactive)	11 µM (inactive)	16.3 µM (inactive)					
OCc1c2c(cc3c1CC1(C3)Cc3cc4c(c(CO)c3C1)CCC4)CCC2	12.7 µM (inactive)	15.1 µM (inactive)	17.5 µM (inactive)					
CN1C(=O)C(CC=O)(C(C)(C)C)c2ccccc21 (stereo not given)	47.1 µM (inactive)	33.3 µM (inactive)	56.6 µM (inactive)					
CC(C)(C)c1cc2c(c(C(C)(C)C)c1O)CC(=O)O2	23.2 µM (inactive)	34.9 µM (inactive)	26.4 µM (inactive)					
CCCCc1c2c(nc3c1CCC/C3=C\c1ccccc1)C(=O)CCC2				22.6 µM (inactive)	19.6 µM (inactive)	25.6 µM (inactive)	18.2 µM (inactive)	35.6 µM (inactive)
COc1c(C)c(C/C=C(\C)CCCC(C)CCCC(C)CCCC(C)C)c(OC)c2ccccc12 (stereo not given)		> 100 µM (inactive)	> 100 µM (inactive)					
Cc1ccc(S(=O)(=O)NC(=O)C2=C3SCCN3C(=O)N(S(=O)(=O)c3ccc(C)cc3)C2c2ccccc2)cc1 (stereo not given)	> 100 µM (inactive)		48.4 µM (inactive)					
Cc1c2c(c(C)n1-c1ccccc1)C(=O)N(CCN1CCN(c3cccc(C(F)(F)F)c3)CC1)C2=O	4.29 µM (inactive)	71.1 µM (inactive)	> 100 µM (inactive)					
C=C(c1ccccc1)c1cc2c(=O)[nH]ccc2n1C				23.3 µM (inactive)	48.5 µM (inactive)		38.6 µM (inactive)	35.6 µM (inactive)
COC(=O)c1cc(=O)nc2sc3cccc(C)c3n12	37.8 µM (inactive)	44 µM (inactive)	56.2 µM (inactive)					
O=C(NCC(O)COc1ccccc1)c1ccccc1O (stereo not given)	42.4 µM (inactive)	> 100 µM (inactive)						
c1cncc(CSc2nc3ccccc3nc2-c2cccs2)c1					> 100 µM (inactive)	> 100 µM (inactive)	> 100 µM (inactive)	
COc1ccc(-c2nc(-c3cnccn3)n(C3OC(CO)C(O)C(O)C3O)n2)cc1 (stereo not given)	> 100 µM (inactive)	> 100 µM (inactive)						
COc1cc(-c2cc(=O)c3ccccc3o2)ccc1N				49.5 µM (inactive)	> 100 µM (inactive)	27.5 µM (inactive)	> 100 µM (inactive)	> 100 µM (inactive)
O=[N+]([O-])C1CC/C(=N/O)c2nonc21 (stereo not given)	> 10 µM (inactive)	> 10 µM (inactive)	> 10 µM (inactive)					

Compound	GI50 [1]	GI50 [2]	GI50 [3]	GI50 [4]	GI50 [5]	GI50 [6]	GI50 [7]	GI50 [8]
c1ccc(/C(=N/Nc2cnccn2)c2ncccn2)cc1		> 100 µM (inactive)	23.1 µM (inactive)					
COc1ccc(-c2nnc(-c3ccncc3)o2)cc1	> 100 µM (inactive)	> 100 µM (inactive)	> 100 µM (inactive)					
COC(=O)C1=CCC[C@H]2[C@@]1(COC(C)=O)CC[C@@H](C)[C@]2(C)CC(=O)c1ccoc1	8.47 µM (inactive)	16.5 µM (inactive)	13.4 µM (inactive)					
N#CC(C(=O)C(=O)Nc1ccccc1)c1ccccc1 (stereo not given)				> 100 µM (inactive)			> 100 µM (inactive)	> 100 µM (inactive)
COC(=O)C(/C(=N/NC(N)=O)C(=O)Nc1c(C)cccc1C(C)(C)C)c1nc2ccc(Cl)cc2nc1O (stereo not given)				> 100 µM (inactive)	> 100 µM (inactive)	> 100 µM (inactive)	> 100 µM (inactive)	> 100 µM (inactive)
CCOC(=O)C1CCC(=O)N1C(=O)c1ccc(Cl)cc1 (stereo not given)	> 100 µM (inactive)	> 100 µM (inactive)	> 100 µM (inactive)					
CCCCn1c2c(n(CCCC)c1=S)-c1c(n(CCCC)c(=S)n1CCCC)SSc1c(n(CCCC)c(=S)n1CCCC)-c1c(n(CCCC)c(=S)n1CCCC)SSc1c(n(CCCC)c(=S)n1CCCC)-c1c(n(CCCC)c(=S)n1CCCC)SS2	1.5 µM (inactive)	7.41 µM (inactive)	3.25 µM (inactive)					
Cc1ccc2nc(/C=N/c3ccc(Cl)cc3)cc(C)c2c1	2.54 µM (inactive)	1.3 µM (inactive)	15.8 µM (inactive)					
O=C(CSCC(=O)N/N=C/c1cccc(OCc2ccccc2)c1)N/N=C/c1cccc(OCc2ccccc2)c1	38.9 µM (inactive)		> 100 µM (inactive)					
Cn1c(O)c(C(=O)Nc2cccs2)c(=O)[nH]c1=S				19.7 µM (inactive)	18.9 µM (inactive)	0.0865 µM (active)	19.1 µM (inactive)	12.1 µM (inactive)
Cc1cc2c(cc1C)C(=O)C1(C2)Cc2c(ccc(C)c2C)C1=O (stereo not given)	> 100 µM (inactive)	> 100 µM (inactive)	42.5 µM (inactive)					
N#CC(Cl)CS(=O)(=O)c1ccccc1 (stereo not given)	2.85 µM (inactive)	8.09 µM (inactive)	11.8 µM (inactive)	18.7 µM (inactive)	21.1 µM (inactive)	8.61 µM (inactive)	15.8 µM (inactive)	
C=C(C)[C@@H](C(=O)OC)N1C(=O)c2ccccc2C1=O	> 100 µM (inactive)	> 100 µM (inactive)	> 100 µM (inactive)					
COc1ccc(NC(=O)CCc2cc(-c3ccc(O)c(OC)c3)nc(NC#N)n2)cc1				> 100 µM (inactive)	> 100 µM (inactive)	> 100 µM (inactive)	> 100 µM (inactive)	> 100 µM (inactive)
COc1cc2c(c(OC3OC(CO)C(O)C(O)C3O)c1)C(=O)CC(c1ccc(O)cc1)O2 (stereo not given)	> 100 µM (inactive)	> 100 µM (inactive)	> 100 µM (inactive)					
CC(=O)ON1C(=O)c2cccc3cccc(c23)C1=O	20.8 µM (inactive)	18.3 µM (inactive)	23.6 µM (inactive)					
CC1(C)C2CC(=O)C1(C)C(OCc1ccccc1)C2 (stereo not given)	40.4 µM (inactive)	47.3 µM (inactive)	22 µM (inactive)					
CC(=O)NNC1=NN(C(C)=O)C2(S1)C(=O)Nc1ccccc12 (stereo not given)	> 100 µM (inactive)	> 100 µM (inactive)						
OCCNCO				> 100 µM (inactive)	> 100 µM (inactive)		> 100 µM (inactive)	> 100 µM (inactive)
CC(C)=CC1C(C(=O)Oc2ccccc2C(C)C)C1(C)C (stereo not given)	19.8 µM (inactive)	26.4 µM (inactive)	39.9 µM (inactive)					
CS(=O)(=O)C1(Br)S(=O)(=O)OCCOS1(=O)=O				> 100 µM (inactive)	> 100 µM (inactive)		> 100 µM (inactive)	> 100 µM (inactive)

Compound	GI50 [1]	GI50 [2]	GI50 [3]	GI50 [4]	GI50 [5]	GI50 [6]	GI50 [7]	GI50 [8]
CSc1nc2nccnc2c(=O)[nH]1				> 100 µM (inactive)		> 100 µM (inactive)	> 100 µM (inactive)	> 100 µM (inactive)
O=C(O)CCSC(=O)Nc1ccc([N+](=O)[O-])cc1					> 100 µM (inactive)			> 100 µM (inactive)
COC(=O)c1c(O)ccc2c1c1c(n2Cc2ccc(OC)cc2)C(=O)c2ccccc2C1		53.1 µM (inactive)	> 100 µM (inactive)					
NNc1nnc(CCCCCCCCc2nnc(NN)n2N)n1N		> 100 µM (inactive)						
CC(C)(/N=N/C(C)(C)C(=N)N)C(=N)N	> 100 µM (inactive)	> 100 µM (inactive)	> 100 µM (inactive)					
CCOC(=O)/C=C(/C(=O)OCC)n1cc(C)c(=O)[nH]c1=O	3.69 µM (inactive)	5.83 µM (inactive)	17.7 µM (inactive)					
CCOC(=O)C1=C(Nc2cccc(OC)c2)OCC1=O	> 100 µM (inactive)		> 100 µM (inactive)					
CC(=O)c1ccc(N2CCN(C3=CC(=O)c4c(O)ccc(O)c4C3=O)CC2)cc1	> 100 µM (inactive)							
Cc1ccc(NC(=O)c2ccc(OP(=O)(O)Nc3ccc(C)cc3)cc2)cc1	> 100 µM (inactive)	> 100 µM (inactive)	92.7 µM (inactive)					
CO[C@H]1O[C@@H]2OC3(C)CCC4[C@H](C)CCC([C@H]1C)[C@]42OO3 (stereo not given in full)	91.6 µM (inactive)	> 100 µM (inactive)	> 100 µM (inactive)					
CC1CCC2(NC1)OC1CC3[C@@H]4CC=C5C=CCC[C@]5(C)C4CC[C@]3(C)C1C2C (stereo not given in full)				17.9 µM (inactive)	39.4 µM (inactive)	32.2 µM (inactive)	33.9 µM (inactive)	
O=[N+]([O-])C1C2C=CC(C2)[C@H]1c1ccco1 (stereo not given in full)				> 100 µM (inactive)	> 100 µM (inactive)		> 100 µM (inactive)	> 100 µM (inactive)
CNc1ncnc2c1nc(NC1CCCC1)n2C1OC(CO)C(O)C1O (stereo not given)	> 100 µM (inactive)	> 100 µM (inactive)						
Cc1cc(C)c2c(O)cc(-c3ccc4ccccc4c3)nc2n1	17.3 µM (inactive)	3.34 µM (inactive)	16.4 µM (inactive)					
O=C(Nc1ccn(C2CCC(COC(c3ccccc3)(c3ccccc3)c3ccccc3)O2)c(=O)n1)c1ccccc1 (stereo not given)	7.46 µM (inactive)	3.57 µM (inactive)	3.54 µM (inactive)					
c1ccc(COc2ccc3[nH]c4c5c6ccccc6nc-5c[nH]c4c3c2)cc1				8.02 µM (inactive)	20.9 µM (inactive)	13.2 µM (inactive)		16 µM (inactive)
CCCCCNC(=O)c1cc2cc(CCl)ccc2oc1=O	1.3 µM (inactive)	9.42 µM (inactive)	6.37 µM (inactive)					
COc1ccc2[nH]c(Cl)c(/C=C3/C(=O)N(c4ccccc4)c4ccccc43)c2c1	3.76 µM (inactive)	1.6 µM (inactive)	4.74 µM (inactive)					
NC(=O)CC[C@H]1C(=O)N=C(N)N1C(=O)OCc1ccccc1		> 100 µM (inactive)	> 100 µM (inactive)					
C=C1CC[C@H]2C(C)=CC[C@H]3C(=C)C(=O)O[C@@H]3[C@@H]12 [EREMANTHIN]	> 100 µM (inactive)	> 100 µM (inactive)						
